Source: ChEMBL document CHEMBL2202996, “Synthesis, evaluation, and radiolabeling of new potent positive allosteric modulators of the metabotropic glutamate receptor 2 as potential tracers for positron emission tomography imaging” (J Med Chem, 2012)

Experiments:
Thalamus [1] = assay: Biodistribution in Wistar rat thalamus at 41 MBq, iv measured at 12 to 28 mins post administration by microPET imaging in presence of JNJ-40068782; format: ADME, organism-based; settings: in vivo
Hippocampus [2] = assay: Biodistribution in Wistar rat hippocampus at 41 MBq, iv measured at 12 to 28 mins post administration by microPET imaging in presence of JNJ-40068782; format: ADME, organism-based; settings: in vivo
Cortex [3] = assay: Biodistribution in Wistar rat cortex at 41 MBq, iv measured at 12 to 28 mins post administration by microPET imaging in presence of JNJ-40068782; format: ADME, organism-based; settings: in vivo
Cerebellum [4] = assay: Biodistribution in Wistar rat cerebellum at 41 MBq, iv measured at 12 to 28 mins post administration by microPET imaging in presence of JNJ-40068782; format: ADME, organism-based; settings: in vivo
Striatum [5] = assay: Biodistribution in Wistar rat striatum at 41 MBq, iv measured at 12 to 28 mins post administration by microPET imaging in presence of JNJ-40068782; format: ADME, organism-based; settings: in vivo
Thalamus [6] = assay: Biodistribution in Wistar rat thalamus at 41 MBq, iv measured at 12 to 28 mins post administration by microPET imaging; format: ADME, organism-based; settings: in vivo
Hippocampus [7] = assay: Biodistribution in Wistar rat hippocampus at 41 MBq, iv measured at 12 to 28 mins post administration by microPET imaging; format: ADME, organism-based; settings: in vivo
Cortex [8] = assay: Biodistribution in Wistar rat cortex at 41 MBq, iv measured at 12 to 28 mins post administration by microPET imaging; format: ADME, organism-based; settings: in vivo
Cerebellum [9] = assay: Biodistribution in Wistar rat cerebellum at 41 MBq, iv measured at 12 to 28 mins post administration by microPET imaging; format: ADME, organism-based; settings: in vivo
Striatum [10] = assay: Biodistribution in Wistar rat striatum at 41 MBq, iv measured at 12 to 28 mins post administration by microPET imaging; format: ADME, organism-based; settings: in vivo
Brain [11] = assay: Biodistribution in Wistar rat brain at 41 MBq, iv measured at 27 mins post administration by microPET imaging; format: ADME, organism-based; settings: in vivo, 0.45 h
Brain [12] = assay: Biodistribution in Wistar rat brain at 41 MBq, iv measured at 12 mins post administration by microPET imaging; format: ADME, organism-based; settings: in vivo, 0.2 h
[13] = Metabolic stability in Wistar rat cerebellum assessed as intact tracer at 74 MBq, iv measured at 30 mins post administration by gamma counting; format: ADME, organism-based; settings: read-out: Stability
[14] = Metabolic stability in Wistar rat cerebrum assessed as intact tracer at 74 MBq, iv measured at 30 mins post administration by gamma counting; format: ADME, organism-based; settings: read-out: Stability
[15] = Metabolic stability in Wistar rat plasma assessed as intact tracer at 74 MBq, iv measured at 30 mins post administration by gamma counting; format: ADME, organism-based; settings: read-out: Stability
Rattus norvegicus = assay: Biodistribution in Wistar rat urinary system at 22 Mbq, iv measured at 60 mins post administration by gamma counting; format: ADME, organism-based, Urine; settings: in vivo, 1 h
Liver = assay: Biodistribution in Wistar rat liver at 22 Mbq, iv measured at 60 mins post administration by gamma counting; format: ADME, organism-based; settings: in vivo, 1 h
Intestine = assay: Biodistribution in Wistar rat intestine at 22 Mbq, iv measured at 60 mins post administration by gamma counting; format: ADME, organism-based; settings: in vivo, 1 h
Blood [16] = assay: Biodistribution in Wistar rat blood at 22 Mbq, iv measured at 60 mins post administration by gamma counting; format: ADME, organism-based; settings: in vivo, 1 h
Brain [17] = assay: Ratio of SUV in total brain in iv dosed Wistar at 2 mins post administration by gamma counting to SUV in total brain in iv dosed Wistar at 30 mins post administration by gamma counting; format: ADME, organism-based; settings: rat, in vivo
Blood [18] = assay: Biodistribution in Wistar rat blood at 22 Mbq, iv measured at 2 mins post administration by gamma counting; format: ADME, organism-based; settings: in vivo
Cerebellum [19] = assay: Ratio of SUV in cerebellum in iv dosed Wistar at 2 mins post administration by gamma counting to SUV in cerebellum in iv dosed Wistar at 30 mins post administration by gamma counting; format: ADME, organism-based; settings: rat, in vivo
Cerebrum [20] = assay: Ratio of SUV in cerebrum in iv dosed Wistar at 2 mins post administration by gamma counting to SUV in cerebrum in iv dosed Wistar at 30 mins post administration by gamma counting; format: ADME, organism-based; settings: rat, in vivo
Cortex [21] = assay: Ratio of SUV in cortex in iv dosed Wistar at 2 mins post administration by gamma counting to SUV in cortex in iv dosed Wistar at 30 mins post administration by gamma counting; format: ADME, organism-based; settings: rat, in vivo
Hippocampus [22] = assay: Ratio of SUV in hippocampus in iv dosed Wistar at 2 mins post administration by gamma counting to SUV in hippocampus in iv dosed Wistar at 30 mins post administration by gamma counting; format: ADME, organism-based; settings: rat, in vivo
Striatum [23] = assay: Ratio of SUV in striatum in iv dosed Wistar at 2 mins post administration by gamma counting to SUV in striatum in iv dosed Wistar at 30 mins post administration by gamma counting; format: ADME, organism-based; settings: rat, in vivo
Brain [24] = assay: Biodistribution in iv dosed Wistar rat total brain measured at 60 mins post administration by gamma counting; format: ADME, organism-based; settings: in vivo, 1 h
Blood [25] = assay: Biodistribution in iv dosed Wistar rat blood measured at 60 mins post administration by gamma counting; format: ADME, organism-based; settings: in vivo, 1 h
Cerebellum [26] = assay: Biodistribution in iv dosed Wistar rat cerebellum measured at 60 mins post administration by gamma counting; format: ADME, organism-based; settings: in vivo, 1 h
Cortex [27] = assay: Biodistribution in iv dosed Wistar rat cortex measured at 60 mins post administration by gamma counting; format: ADME, organism-based; settings: in vivo, 1 h
Cerebrum [28] = assay: Biodistribution in iv dosed Wistar rat cerebrum measured at 60 mins post administration by gamma counting; format: ADME, organism-based; settings: in vivo, 1 h
Hippocampus [29] = assay: Biodistribution in iv dosed Wistar rat hippocampus measured at 60 mins post administration by gamma counting; format: ADME, organism-based; settings: in vivo, 1 h
Blood [30] = assay: Biodistribution in iv dosed Wistar rat blood measured at 30 mins post administration by gamma counting; format: ADME, organism-based; settings: in vivo, 0.5 h
Striatum [31] = assay: Biodistribution in iv dosed Wistar rat striatum measured at 60 mins post administration by gamma counting; format: ADME, organism-based; settings: in vivo, 1 h
Brain [32] = assay: Biodistribution in iv dosed Wistar rat total brain measured at 30 mins post administration by gamma counting; format: ADME, organism-based; settings: in vivo, 0.5 h
Cerebrum [33] = assay: Biodistribution in iv dosed Wistar rat cerebrum measured at 30 mins post administration by gamma counting; format: ADME, organism-based; settings: in vivo, 0.5 h
Cerebellum [34] = assay: Biodistribution in iv dosed Wistar rat cerebellum measured at 30 mins post administration by gamma counting; format: ADME, organism-based; settings: in vivo, 0.5 h
Cortex [35] = assay: Biodistribution in iv dosed Wistar rat cortex measured at 30 mins post administration by gamma counting; format: ADME, organism-based; settings: in vivo, 0.5 h
Hippocampus [36] = assay: Biodistribution in iv dosed Wistar rat hippocampus measured at 30 mins post administration by gamma counting; format: ADME, organism-based; settings: in vivo, 0.5 h
Blood [37] = assay: Biodistribution in iv dosed Wistar rat blood measured at 2 mins post administration by gamma counting; format: ADME, organism-based; settings: in vivo
Striatum [38] = assay: Biodistribution in iv dosed Wistar rat striatum measured at 30 mins post administration by gamma counting; format: ADME, organism-based; settings: in vivo, 0.5 h
Cerebellum [39] = assay: Biodistribution in iv dosed Wistar rat cerebellum measured at 2 mins post administration by gamma counting; format: ADME, organism-based; settings: in vivo
Brain [40] = assay: Biodistribution in iv dosed Wistar rat total brain measured at 2 mins post administration by gamma counting; format: ADME, organism-based; settings: in vivo
Cerebrum [41] = assay: Biodistribution in iv dosed Wistar rat cerebrum measured at 2 mins post administration by gamma counting; format: ADME, organism-based; settings: in vivo
Hippocampus [42] = assay: Biodistribution in iv dosed Wistar rat hippocampus measured at 2 mins post administration by gamma counting; format: ADME, organism-based; settings: in vivo
Cortex [43] = assay: Biodistribution in iv dosed Wistar rat cortex measured at 2 mins post administration by gamma counting; format: ADME, organism-based; settings: in vivo
Striatum [44] = assay: Biodistribution in iv dosed Wistar rat striatum measured at 2 mins post administration by gamma counting; format: ADME, organism-based; settings: in vivo
Cerebellum [45] = assay: Biodistribution in Wistar rat cerebellum at 22 Mbq, iv measured at 2 mins post administration by gamma counting; format: ADME, organism-based; settings: in vivo
Cerebrum [46] = assay: Biodistribution in Wistar rat cerebrum at 22 Mbq, iv measured at 2 mins post administration by gamma counting; format: ADME, organism-based; settings: in vivo
Brain [47] = assay: Biodistribution in Wistar rat brain at 22 Mbq, iv measured at 2 mins post administration by gamma counting; format: ADME, organism-based; settings: in vivo

Drug uptake (Thalamus [1]): Not Active
Drug uptake (Hippocampus [2]): Not Active
Drug uptake (Cortex [3]): Not Active
Drug uptake (Cerebellum [4]): Not Active
Drug uptake (Striatum [5]): Not Active
Drug uptake (Thalamus [6]): Active
Drug uptake (Hippocampus [7]): Active
Drug uptake (Cortex [8]): Active
Drug uptake (Cerebellum [9]): Active
Drug uptake (Striatum [10]): Active
SUV (Brain [11]): 1.7
SUV (Brain [12]): 1.7
remaining at 0.5 h [13]: 95.5%
remaining at 0.5 h [14]: 90.3%
remaining at 0.5 h [15]: 69.7%
Drug uptake (Rattus norvegicus): 2.4 %ID
Drug uptake (Liver): 35.7%
Drug uptake (Intestine): 35.7%
Drug uptake (Blood [16]): 2 %ID
Ratio (Brain [17]): 0.65
Drug uptake (Blood [18]): 4.3 %ID
Ratio (Cerebellum [19]): 0.61
Ratio (Cerebrum [20]): 0.67
Ratio (Cortex [21]): 0.82
Ratio (Hippocampus [22]): 0.6
Ratio (Striatum [23]): 0.57
SUV (Brain [24]): 1.18
SUV (Blood [25]): 0.28
SUV (Cerebellum [26]): 1.75
SUV (Cortex [27]): 1.28
SUV (Cerebrum [28]): 1.11
SUV (Hippocampus [29]): 0.73
SUV (Blood [30]): 0.39
SUV (Striatum [31]): 1.72
SUV (Brain [32]): 2.13
SUV (Cerebrum [33]): 1.96
SUV (Cerebellum [34]): 2.62
SUV (Cortex [35]): 1.77
SUV (Hippocampus [36]): 1.49
SUV (Blood [37]): 0.61
SUV (Striatum [38]): 2.14
SUV (Cerebellum [39]): 1.59
SUV (Brain [40]): 1.39
SUV (Cerebrum [41]): 1.32
SUV (Hippocampus [42]): 0.9
SUV (Cortex [43]): 1.46
SUV (Striatum [44]): 1.22
Drug uptake (Cerebellum [45]): 0.17 %ID
Drug uptake (Cerebrum [46]): 0.69 %ID
Drug uptake (Brain [47]): 0.88 %ID
Structure (SMILES): [11CH3]Oc1c(F)ccc(F)c1C1CCN(c2ccn3c(CC4CC4)nnc3c2Cl)CC1
